Measured values from the supplement of paper PMC10307832.

Key:
Assay in all cases: relative viability (nuclei count vs DMSO), 5 days (fraction); higher = more cells survive
[1] = system: HCC-44
In short: (§1)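 Relative viability divides the nuclei count in treated wells by that in vehicle wells. Lung cancer cell lines were seeded in 1536-well plates, dosed by pin tool the next day, and fixed and stained after 5 days in one step with final 0.05% Triton X-100, 1% formaldehyde and 1 ug/ml Hoechst. Dosing was a single drug or a fixed anchor-drug dose plus five library-drug doses (not always all listed) in √10 steps, and values are medians of duplicate plates imaged at 4×.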

[2] = system: LC-2-ad
In short: as §1

[3] = system: NCI-H2170
In short: as §1

[4] = system: NCI-H838
In short: as §1

[5] = system: NCI-H1395
In short: as §1

[6] = system: HOP-62
In short: as §1

[7] = system: NCI-H1993
In short: as §1

[8] = system: NCI-H1666
In short: as §1

[9] = system: NCI-H322M
In short: as §1

[10] = system: NCI-H1355
In short: as §1

[11] = system: NCI-H1651
In short: as §1

[12] = system: 201T
In short: as §1

[13] = system: NCI-H2085
In short: as §1

[14] = system: ABC-1
In short: as §1

[15] = system: NCI-H23
In short: as §1

[16] = system: CAL-12T
In short: as §1

[17] = system: LCLC-103H
In short: as §1

[18] = system: NCI-H2347
In short: as §1

[19] = system: NCI-H647
In short: as §1

SMILES: O=C(O)CCCCC(CCSCc1ccccc1)SCc1ccccc1 (centres undefined) [CPI-613] + NC(=O)Nc1cc(-c2cccc(F)c2)sc1C(=O)N[C@H]1CCCNC1 [AZD7762] (partner 0.2 µM)
- relative viability ([1]; first compound 5 µM): 1.03
- relative viability ([1]; first compound 15.81 µM): 0.966
- relative viability ([1]; first compound 50 µM): 1.01
- relative viability ([1]; first compound 158.11 µM): 0.967
- relative viability ([1]; first compound 500 µM): 0.66
- relative viability ([2]; first compound 5 µM): 0.771
- relative viability ([2]; first compound 15.81 µM): 0.813
- relative viability ([2]; first compound 50 µM): 0.825
- relative viability ([2]; first compound 158.11 µM): 0.283
- relative viability ([2]; first compound 500 µM): 0.01
- relative viability ([3]; first compound 5 µM): 0.878
- relative viability ([3]; first compound 15.81 µM): 0.826
- relative viability ([3]; first compound 50 µM): 0.865
- relative viability ([3]; first compound 158.11 µM): 0.607
- relative viability ([3]; first compound 500 µM): 0.231
- relative viability ([4]; first compound 5 µM): 0.977
- relative viability ([4]; first compound 15.81 µM): 0.935
- relative viability ([4]; first compound 50 µM): 0.893
- relative viability ([4]; first compound 158.11 µM): 0.844
- relative viability ([4]; first compound 500 µM): 0.912
- relative viability ([5]; first compound 5 µM): 0.42
- relative viability ([5]; first compound 15.81 µM): 0.403
- relative viability ([5]; first compound 50 µM): 0.381
- relative viability ([5]; first compound 158.11 µM): 0.4
- relative viability ([5]; first compound 500 µM): 0.327
- relative viability ([6]; first compound 5 µM): 0.703
- relative viability ([6]; first compound 15.81 µM): 0.398
- relative viability ([6]; first compound 50 µM): 0.649
- relative viability ([6]; first compound 158.11 µM): 0.235
- relative viability ([6]; first compound 500 µM): 0.216
- relative viability ([7]; first compound 5 µM): 0.743
- relative viability ([7]; first compound 15.81 µM): 0.688
- relative viability ([7]; first compound 50 µM): 0.65
- relative viability ([7]; first compound 158.11 µM): 0.537
- relative viability ([7]; first compound 500 µM): 0.286
- relative viability ([8]; first compound 5 µM): 0.911
- relative viability ([8]; first compound 15.81 µM): 0.821
- relative viability ([8]; first compound 50 µM): 0.761
- relative viability ([8]; first compound 158.11 µM): 0.376
- relative viability ([8]; first compound 500 µM): 0.553
- relative viability ([9]; first compound 5 µM): 0.547
- relative viability ([9]; first compound 15.81 µM): 0.508
- relative viability ([9]; first compound 50 µM): 0.606
- relative viability ([9]; first compound 158.11 µM): 0.638
- relative viability ([9]; first compound 500 µM): 0.269
- relative viability ([10]; first compound 5 µM): 0.721
- relative viability ([10]; first compound 15.81 µM): 0.741
- relative viability ([10]; first compound 50 µM): 0.772
- relative viability ([10]; first compound 158.11 µM): 0.52
- relative viability ([10]; first compound 500 µM): 0.185
- relative viability ([11]; first compound 5 µM): 0.484
- relative viability ([11]; first compound 15.81 µM): 0.421
- relative viability ([11]; first compound 50 µM): 0.421
- relative viability ([11]; first compound 158.11 µM): 0.317
- relative viability ([11]; first compound 500 µM): 0.45
- relative viability ([12]; first compound 5 µM): 0.581
- relative viability ([12]; first compound 15.81 µM): 0.62
- relative viability ([12]; first compound 50 µM): 0.66
- relative viability ([12]; first compound 158.11 µM): 0.318
- relative viability ([12]; first compound 500 µM): 0.564
- relative viability ([13]; first compound 5 µM): 0.895
- relative viability ([13]; first compound 15.81 µM): 0.785
- relative viability ([13]; first compound 50 µM): 0.895
- relative viability ([13]; first compound 158.11 µM): 0.856
- relative viability ([13]; first compound 500 µM): 0.209
- relative viability ([14]; first compound 5 µM): 1.18
- relative viability ([14]; first compound 15.81 µM): 0.696
- relative viability ([14]; first compound 158.11 µM): 0.471
- relative viability ([14]; first compound 500 µM): 0.71
- relative viability ([15]; first compound 5 µM): 0.212
- relative viability ([15]; first compound 15.81 µM): 0.274
- relative viability ([15]; first compound 50 µM): 0.218
- relative viability ([15]; first compound 158.11 µM): 0.151
- relative viability ([15]; first compound 500 µM): 0.0026
- relative viability ([16]; first compound 5 µM): 0.624
- relative viability ([16]; first compound 15.81 µM): 0.457
- relative viability ([16]; first compound 50 µM): 0.509
- relative viability ([16]; first compound 158.11 µM): 0.541
- relative viability ([16]; first compound 500 µM): 0.469
- relative viability ([17]; first compound 5 µM): 0.738
- relative viability ([17]; first compound 15.81 µM): 0.764
- relative viability ([17]; first compound 50 µM): 0.755
- relative viability ([17]; first compound 158.11 µM): 0.65
- relative viability ([17]; first compound 500 µM): 0.501
- relative viability ([18]; first compound 5 µM): 0.735
- relative viability ([18]; first compound 15.81 µM): 0.787
- relative viability ([18]; first compound 50 µM): 0.715
- relative viability ([18]; first compound 158.11 µM): 0.718
- relative viability ([18]; first compound 500 µM): 0.435
- relative viability ([19]; first compound 5 µM): 0.502
- relative viability ([19]; first compound 15.81 µM): 0.32
- relative viability ([19]; first compound 50 µM): 0.406
- relative viability ([19]; first compound 158.11 µM): 0.282
- relative viability ([19]; first compound 500 µM): 0.343
